Test results published in patent US11371055B2, “Herbicide resistance genes” (CORTEVA AGRISCIENCE LLC, priority 2005, dated 2022).

Columns and labels:
[1] = system: PHL tobacco suspension co-cultivated with Agrobacterium carrying pDAB724; assay: Tobacco cell transformation with AAD-12 (v1) and 2,4-D selection; format: cell-based
Method: For tobacco transformation experiment, there were 11 treatments altogether: a control set plated on LS-BY2C+dichlorprop medium, and 10 sets of LSBY2C+dichlorprop+2,4-D at varying concentration levels (1, 2, 3, 5, 8, 10, 12, 15, 18, 20 mg/L). There were four replications per treatment. The plasmid DNA vector used was pDAB724, and the vector used for transformation was EHA101S strain of Agrobacterium tumefaciens. Four ml of PHL suspension at 0.6 OD^660 were mixed with 100 ul of Agrobacterium (either EHA101 or LBA4404 strains) suspension at 1.0 OD^660 in a sterile Petri plate and were mixed thoroughly and co-cultivated together in a non-shake condition at a dark growth chamber for 3 days at 25° C. After the co-cultivation period 1.5 ml of the Agro-tobacco suspension mixture was plated to the 11 set of plates above. […] Again, there were four replicates per treatment, as well as a positive and negative control. All media contain 500 mg/L Carbenicillin (C) to control to contain Agrobacterium growth in the selection media.
The plasmid used in these experiments is pDAB724 and it has PAT selectable marker as well. So, control transformation experiments were initiated using R-dichlorprop habituated PHL in the presence of 10 mg/L bialophos following the standard protocol described above. […]

[2] = system: AAD-12 transformed T0 corn events; assay: Postemergence herbicide tolerance in T0 corn; format: in vivo, Zea mays; details: 2240 g ae/ha 2,4-D
Method: Four T0 events were allowed to acclimate in the greenhouse and were grown until 2-4 new, normal looking leaves had emerged from the whorl (i.e., plants had transitioned from tissue culture to greenhouse growing conditions). Plants were grown at 27° C. under 16 hour light:8 hour dark conditions in the greenhouse. Plants were then treated with commercial formulations of either Pursuit® (imazethapyr) or 2,4-D Amine 4. […] Herbicide applications were made with a track sprayer at a spray volume of 187 L/ha, 50-cm spray height. Plants were sprayed with either a lethal dose of imazethapyr (70 g ae/ha) or a rate of 2,4-D DMA salt capable of significant injury to untransformed corn lines (2240 g ac/ha). A lethal dose is defined as the rate that causes >95% injury to the Hi-II inbred. Hi-II is the genetic background of the transformants of the present invention.

[3] = system: AAD-12 (v1) T0 Maverick soybean plants; assay: 2,4-D leaf paint (leaf flip assay) on T0 soybean; format: in vivo, Glycine max; parameters: key to Leaf flip assay (18 HAT) Node N-1 / Leaf flip assay (18 HAT) Node N-2: 1 = Flip; 0 = No Flip; details: for Leaf flip assay (18 HAT) Node N-1 / Leaf flip assay (18 HAT) Node N-2: 2,4-D leaf paint
Source text: Plants that are transferred to the greenhouse can be assayed for the presence of an active PAT gene further with a non-destructive manner by painting a section of leaf of the T0 primary transformant, or progeny thereof, with a glufosinate solution [0.05-2% v/v Liberty Herbicide, preferably 0.25-1.0% (v/v),=500-2000 ppm glufosinate, Bayer Crop Science]. Depending on the concentration used, assessment for glufosinate injury can be made 1-7 days after treatment. Plants can also be tested for 2,4-D tolerance in a non-destructive manner by selective application of a 2,4-D solution in water (0.25-1% v/v commercial 2,4-D dimethylamine salt formulation, preferably 0.5% v/v=2280 ppm 2,4-D ae) to the terminal leaflet of the newly expanding trifoliolate one or two, preferably two, nodes below the youngest emerging trifolioate. This assay allows assessment of 2,4-D sensitive plants 6 hours to several days after application by assessment of leaf flipping or rotation >90 degrees from the plane of the adjacent leaflets. Plants tolerant to 2,4-D will not respond to 2,4-D. To plants will be allowed to self fertilize in the greenhouse to give rise to T1 seed. T1 plants (and to the extent enough T0 plant clones are produced) will be sprayed with a range of herbicide doses to determine the level of herbicide protection afforded by AAD-12 (v1) and PAT genes in transgenic soybean. Rates of 2,4-D used on T0 plants will typically comprise one or two selective rates in the range of 100-1120 g ae/ha using a track sprayer as previously described. T1 plants will be treated with a wider herbicide dose ranging from 50-3200 g ae/ha 2,4-D. Likewise, T0 and T1 plants can be screened for glufosinate resistance by postemergence treatment with 200-800 and 50-3200 g ae/ha glufosinate, respectively. Glyphosate resistance (in plants transformed with constructs that contain EPSPS) or another glyphosate tolerance gene can be assessed in the T1 generation by postemergence applications of glyphosate with a dose range from 280-2240 g ae/ha glyphosate. Analysis of protein expression will occur as described in below. Individual T0 plants were assessed for the presence of the coding region of the gene of interest (AAD-12 (v1) or PAT v6) and copy number. Determination of the inheritance of AAD-12 (v1) will be made using T1 and T2 progeny segregation with respect to herbicide tolerance as described in previous examples.
A subset of the initial transformants were assessed in the T0 generation according to the methods above. […] PAT-only transformed plants responded the same at wildtype plants to leaf paint applications of 2,4-D

## O=C(O)COc1ccc(Cl)cc1Cl [2,4-D, 2,4-dichlorophenoxyacetic acid]
[1]; 20, 40, 60, 80, 100, and 120 mg/L 2,4-D tested
  2,4-D concentration beyond which bulked AAD-12 (v1) callus did not grow: ≤ 20 mg/L
[1]; LS-BY2C+dichlorprop medium
  sub-lethal concentration of 2,4-D (above it lethal to the non-transformed cells): 10 mg/L
[2]; T0 corn event 4101(0)003.001
  % injury 14 DAT: 0%
[2]; T0 corn event 4101(0)003.003
  % injury 14 DAT: 0%
[2]; T0 corn event 4101(0)005.001
  % injury 14 DAT: 0%
[3]; event D-1-14 (pDAB4464, AAD-12, CsVMV)
  Leaf flip assay (18 HAT) Node N-1: 0
[3]; event D-2-9 (pDAB4464, AAD-12, CsVMV)
  Leaf flip assay (18 HAT) Node N-2: 0
[3]; event D-2-14 (pDAB4464, AAD-12, CsVMV)
  Leaf flip assay (18 HAT) Node N-2: 0
[3]; event D-3-5 (pDAB4468, AAD-12, AtUbi10)
  Leaf flip assay (18 HAT) Node N-2: 0
[3]; event D-3-6 (pDAB4468, AAD-12, AtUbi10)
  Leaf flip assay (18 HAT) Node N-1: 0
[3]; event D-3-7 (pDAB4468, AAD-12, AtUbi10)
  Leaf flip assay (18 HAT) Node N-2: 0
[3]; event D-3-9 (pDAB4468, AAD-12, AtUbi10)
  Leaf flip assay (18 HAT) Node N-2: 0
[3]; event D-4-11B (pDAB4468, AAD-12, AtUbi10)
  Leaf flip assay (18 HAT) Node N-2: 0
[3]; event D-4-16 (pDAB4468, AAD-12, AtUbi10)
  Leaf flip assay (18 HAT) Node N-2: 0
[3]; event D-4-17 (pDAB4468, AAD-12, AtUbi10)
  Leaf flip assay (18 HAT) Node N-2: 0
[3]; event D-5-2 (pDAB4472, AAD-12, AtUbi3)
  Leaf flip assay (18 HAT) Node N-1: 0
[3]; event D-9-1 (pDAB4480, AAD-12, AtAct2)
  Leaf flip assay (18 HAT) Node N-2: 0
[3]; 2,4-D solution applied to terminal leaflet
  response to 2,4-D leaf painting: did not respond
